Measured values published in article PMC3139250 (Phytochemistry letters, 2011).

Molecular target: mitochondrial ETC complex I (NADH-ubiquinone oxidoreductase) (Homo sapiens, UniProt O75251+O75306+P03886)
Assay: Oxygen consumption
Format: cell-based

## CC(C)(O)[C@H]1CC[C@](C)([C@@H](O)CC[C@](C)(O)[C@H]2CC[C@H]3O[C@@H]([C@]4(C)CC[C@@H](Br)C(C)(C)O4)CC[C@]3(C)O2)O1 [compound 1, thyrsiferol]
  IC50: 3 µM
